In US10800746B2, “Oxoalkyl-substituted phenyltriazole derivatives and uses thereof” (BAYER PHARMA AKTIENGESELLSCHAFT, priority 2016, dated 2020):

Key:
Wistar rats = assay: Diuresis investigations in conscious rats kept in metabolism cages; assay type: in vivo; conditions: rat
Method: Wistar rats (220-450 g body weight) are kept with free access to feed (Altromin) and drinking water. During the experiment, the animals are kept with free access to drinking water for 4 to 8 or up to 24 hours individually in metabolism cages suitable for rats of this weight class (Tecniplast Deutschland GmbH, D-82383 Hohenpeißenberg). At the beginning of the experiment, the animals are administered the test substance in a volume of 1 to 3 ml/kg body weight of a suitable solvent by means of gavage into the stomach. Control animals only receive solvent. Controls and substance tests are carried out in parallel on the same day. Control groups and substance-dose groups each consist of 4 to 8 animals. During the experiment, the urine excreted by the animals is collected continuously in a receiver at the base of the cage. The volume of urine per time unit is determined separately for each animal, and the concentration of urinary electrolytes is measured by standard methods of flame photometry. Before the beginning of the experiment, the body weight of the individual animals is determined.

human V2 receptor = human V2 receptor (Homo sapiens (Human), UniProt P30518); assay: Cellular in vitro assay for vasopressin receptor activity, V2 receptor cell line (CRE-luciferase); assay type: cell-based; conditions: CHO cell line transfected with human V2 receptor; [Arg8]-vasopressin at EC50; read-out: IC50 hV2
Chain of human V2 receptor (P30518 whole entry): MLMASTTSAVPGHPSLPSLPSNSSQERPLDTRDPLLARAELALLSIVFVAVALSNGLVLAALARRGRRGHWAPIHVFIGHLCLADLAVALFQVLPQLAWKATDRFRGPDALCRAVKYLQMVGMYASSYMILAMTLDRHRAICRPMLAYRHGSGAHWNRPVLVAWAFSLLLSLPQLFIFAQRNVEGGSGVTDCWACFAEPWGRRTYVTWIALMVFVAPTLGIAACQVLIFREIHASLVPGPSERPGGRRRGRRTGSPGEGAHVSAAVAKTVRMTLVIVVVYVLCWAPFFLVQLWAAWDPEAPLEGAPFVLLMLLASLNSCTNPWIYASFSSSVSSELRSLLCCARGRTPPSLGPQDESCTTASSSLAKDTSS
Method: (§1) The identification of agonists and antagonists of the V1a and V2 vasopressin receptors from humans, rats and dogs as well as the quantification of the activity of the compounds of the invention is carried out using recombinant cell lines. These cell lines originally derive from a hamster's ovary epithelial cell (Chinese Hamster Ovary, CHO K1, ATCC: American Type Culture Collection, Manassas, Va. 20108, USA). The test cell lines constitutively express the human, rat or dog V1a or V2 receptors. In case of the Gαq-coupled V1a receptors, cells are also stably transfected with a modified form of the calcium-sensitive photoproteins aequorin (human and rat V1a) or obelin (dog V1a), which, after reconstitution with the cofactor coelenterazine, emit light when there are increases in free calcium concentrations [Rizzuto R, Simpson A W, Brini M, Pozzan T, Nature 358, 325-327 (1992); Illarionov B A, Bondar V S, Illarionova V A, Vysotski E S, Gene 153 (2), 273-274 (1995)]. The resulting vasopressin receptor cells react to stimulation of the recombinantly expressed V1a receptors by intracellular release of calcium ions, which can be quantified by the resulting photoprotein luminescence. The Gs-coupled V2 receptors are stably transfected into cell lines expressing the gene for firefly luciferase under control of a CRE-responsible promoter. Activation of V2 receptors induces the activation of the CRE-responsive promoter via cAMP increase, thereby inducing the expression of firefly luciferase. The light emitted by photoproteins of V1a cell lines as well as the light emitted by firefly luciferase of V2 cell lines corresponds to the activation or inhibition of the respective vasopressin receptor. The bioluminescence of the cell lines is detected using a suitable luminometer [Milligan G, Marshall F, Rees S, Trends in Pharmacological Sciences 17, 235-237 (1996)].
On the day before the assay, the cells are plated out in culture medium (DMEM/F12, 2% FCS, 2 mM glutamine, 10 mM HEPES) in 384-well microtiter plates and kept in a cell incubator (96% humidity, 5% v/v CO2, 37° C.). […] Upon addition of the cell lysis reagent Triton™ and the substrate luciferin, luminescence of firefly luciferase is measured in a luminometer.

human V1a receptor = human V1a receptor (Homo sapiens (Human), UniProt P37288); assay: Cellular in vitro assay for vasopressin receptor activity, V1a receptor cell line (aequorin luminescence); assay type: cell-based; conditions: CHO cell line transfected with human V1a receptor; [Arg8]-vasopressin at EC50; read-out: IC50 hV1a
Chain of human V1a receptor (P37288 whole entry): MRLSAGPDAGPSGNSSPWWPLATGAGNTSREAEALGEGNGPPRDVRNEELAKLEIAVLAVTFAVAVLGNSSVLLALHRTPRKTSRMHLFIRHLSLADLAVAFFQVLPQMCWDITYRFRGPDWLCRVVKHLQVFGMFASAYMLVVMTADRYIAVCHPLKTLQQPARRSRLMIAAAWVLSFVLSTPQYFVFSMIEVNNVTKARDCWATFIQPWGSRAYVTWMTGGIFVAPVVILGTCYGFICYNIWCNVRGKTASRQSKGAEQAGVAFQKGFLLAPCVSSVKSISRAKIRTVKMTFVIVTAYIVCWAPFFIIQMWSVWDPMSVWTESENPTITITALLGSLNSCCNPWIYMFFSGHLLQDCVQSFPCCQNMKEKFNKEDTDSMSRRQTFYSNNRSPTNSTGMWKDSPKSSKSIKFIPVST
Method: as §1
On the day before the assay, the cells are plated out in culture medium (DMEM/F12, 2% FCS, 2 mM glutamine, 10 mM HEPES, 5 μg/ml coelenterazine) in 384-well microtiter plates and kept in a cell incubator (96% humidity, 5% v/v CO2, 37° C.). On the day of the assay, test compounds in various concentrations are placed for 10 minutes in the wells of the microtiter plate before the agonist [Arg^8]-vasopressin at EC50 concentration is added. The resulting light signal is measured immediately in the luminometer.

| IC50 (human V2 receptor) [nM] | IC50 (human V1a receptor) [nM] | Structure (SMILES) | Urinary volume [% vs. control = 100%] (Wistar rats; 0.3 mg/kg p.o.) | Urinary volume [% vs. control = 100%] (Wistar rats; 3.0 mg/kg p.o.) |
| --- | --- | --- | --- | --- |
| 2.3 | 34.5 | CC(=O)c1nc(Cn2nc(-c3ccc(Cl)cc3)n(C[C@H](O)C(F)(F)F)c2=O)nn1-c1cccc(Cl)c1 [Example 1, 2-{[5-Acetyl-1-(3-chlorophenyl)-1H-1,2,4-triazol-3-yl]methyl}-5-(4-chlorophenyl)-4-[(2S)-3,3,3-trifluoro-2-hydroxypropyl]-2,4-dihydro-3H-1,2,4-triazol-3-one] | 344 | 554 |
| 6.2 | 7.5 | CC(=O)c1nc(Cn2nc(-c3ccc(Cl)cc3)n(C[C@H](O)C(F)(F)F)c2=O)nn1-c1cccc(F)c1 [Example 2, 2-{[5-Acetyl-1-(3-fluorophenyl)-1H-1,2,4-triazol-3-yl]methyl}-5-(4-chlorophenyl)-4-[(2S)-3,3,3-trifluoro-2-hydroxypropyl]-2,4-dihydro-3H-1,2,4-triazol-3-one] |  |  |
| 4.9 | 0.5 | CC(=O)c1nc(Cn2nc(-c3ccc(Cl)cc3)n(C[C@H](O)C(F)(F)F)c2=O)nn1-c1ccccc1Cl [Example 3, 2-{[5-Acetyl-1-(2-chlorophenyl)-1H-1,2,4-triazol-3-yl]methyl}-5-(4-chlorophenyl)-4-[(2S)-3,3,3-trifluoro-2-hydroxypropyl]-2,4-dihydro-3H-1,2,4-triazol-3-one] | 172 | 679 |
| 7.7 | 123 | CC(=O)c1nc(Cn2nc(-c3ccc(Cl)cc3)n(CC(=O)C(F)(F)F)c2=O)nn1-c1cccc(Cl)c1 [Example 4, 2-{[5-Acetyl-1-(3-chlorophenyl)-1H-1,2,4-triazol-3-yl]methyl}-5-(4-chlorophenyl)-4-(3,3,3-trifluoro-2-oxopropyl)-2,4-dihydro-3H-1,2,4-triazol-3-one] |  |  |
| 2.8 | 55 | CC(O)c1nc(Cn2nc(-c3ccc(Cl)cc3)n(CC(=O)C(F)(F)F)c2=O)nn1-c1cccc(Cl)c1 [Example 5, 5-(4-Chlorophenyl)-2-({1-(3-chlorophenyl)-5-[(1S,R)-1-hydroxyethyl]-1H-1,2,4-triazol-3-yl}methyl)-4-(3,3,3-trifluoro-2-oxopropyl)-2,4-dihydro-3H-1,2,4-triazol-3-one] |  |  |

Further lines, the molecule ahead of its results:

| Structure (SMILES) | IC50 (human V2 receptor) [nM] | IC50 (human V1a receptor) [nM] | Urinary volume [% vs. control = 100%] (Wistar rats; 0.3 mg/kg p.o.) | Urinary volume [% vs. control = 100%] (Wistar rats; 3.0 mg/kg p.o.) |
| --- | --- | --- | --- | --- |
| O=c1n(Cc2nnc(-c3ccccc3Cl)[nH]2)nc(-c2ccc(Cl)cc2)n1C[C@H](O)C(F)(F)F [Example No. WO 2011/104322 54] |  |  | 85 | 188 |
| COC(=O)Cn1nc(-c2ccccc2Cl)nc1Cn1nc(-c2ccc(Cl)cc2)n(C[C@H](O)C(F)(F)F)c1=O [Example No. WO 2011/104322 56] | 6.7 | 1.3 | 128 | 85 |
| O=C(O)Cn1nc(Cn2nc(-c3ccc(Cl)cc3)n(C[C@H](O)C(F)(F)F)c2=O)nc1-c1ccccc1Cl [Example No. WO 2011/104322 60] |  |  | 96 | 84 |
| NC(=O)Cn1nc(Cn2nc(-c3ccc(Cl)cc3)n(C[C@H](O)C(F)(F)F)c2=O)nc1-c1ccccc1Cl [Example No. WO 2011/104322 68] |  |  | 87 | 121 |
| O=c1n(Cc2cn(-c3ccccc3Cl)nn2)nc(-c2ccc(Cl)cc2)n1C[C@H](O)C(F)(F)F [Example No. WO 2011/104322 101] |  |  | 111 | 255 |
| O=c1n(Cc2cn(-c3ccccc3Cl)cn2)nc(-c2ccc(Cl)cc2)n1C[C@H](O)C(F)(F)F [Example No. WO 2011/104322 110] |  |  | 114 | 274 |
